Reference: US10717749B2, “Macrocyclic sulfondiimine compounds” (BAYER PHARMA AKTIENGESELLSCHAFT, priority 2015, dated 2020)
≈ marks a conversion by molar mass, not a printed value.

What was measured:
[1] = In vivo pharmacokinetics in rats; conditions: male, Wistar, rat, plasma, iv; i.v. bolus dosing to rats; read-out: t1/2: terminal half-life (converted)
Protocol: 7. In Vivo Pharmacokinetics in Rats
For in vivo pharmacokinetic experiments test compounds were administered to male Wistar rats intravenously at doses of 0.3 to 1 mg/kg formulated as solutions using either rat plasma or solubilizers such as PEG400 in well-tolerated amounts.
For pharmacokinetics after intravenous administration test compounds were given as i.v. bolus and blood samples were taken at 2 min, 8 min, 15 min, 30 min, 45 min, 1 h, 2 h, 4 h, 6 h, 8 h and 24 h after dosing. […] Blood was collected into Lithium-Heparin tubes (Monovetten®, Sarstedt) and centrifuged for 15 min at 3000 rpm. An aliquot of 100 μL from the supernatant (plasma) was taken and precipitated by addition of 400 μL ice cold acetonitrile and frozen at −20° C. over night. Samples were subsequently thawed and centrifuged at 3000 rpm, 4° C. for 20 minutes. Aliquots of the supernatants were taken for analytical testing using an Agilent 1200 HPLC-system with LCMS/MS detection. PK parameters were calculated by non-compartmental analysis using a PK calculation software. […]

rat hepatocytes = test: In vitro metabolic stability in rat hepatocytes; type: in vitro ADME; conditions: 1 μM
Protocol: Caco-2 cells (purchased from DSMZ Braunschweig, Germany) were seeded at a density of 4.5×10^4 cells per well on 24 well insert plates, 0.4 µm pore size, and grown for 15 days in DMEM medium supplemented with 10% fetal bovine serum, 1% GlutaMAX (100×, GIBCO), 100 U/mL penicillin, 100 μg/mL streptomycin (GIBCO) and 1% non essential amino acids (100×). Cells were maintained at 37° C. in a humified 5% CO2 atmosphere. Medium was changed every 2-3 day. Before running the permeation assay, the culture medium was replaced by a FCS-free hepes-carbonate transport buffer (pH 7.2). For assessment of monolayer integrity the transepithelial electrical resistance (TEER) was measured. Test compounds were predissolved in DMSO and added either to the apical or basolateral compartment in final concentration of 2 μM in transport buffer. Before and after 2 h incubation at 37° C. samples were taken from both compartments. Analysis of compound content was done after precipitation with methanol by LC/MS/MS analysis. Permeability (Papp) was calculated in the apical to basolateral (A→B) and basolateral to apical (B→A) directions. The apparent permeability was calculated using following equation: Papp=(Vr/Po)(1/S)(P2/t) Where Vr is the volume of medium in the receiver chamber, Po is the measured peak area or height of the test drug in the donor chamber at t=o, S the surface area of the monolayer, P2 is the measured peak area of the test drug in the acceptor chamber after 2 h of incubation, and t is the incubation time. The efflux ratio basolateral (B) to apical (A) was calculated by dividing the Papp B-A by the Papp A-B. In addition the compound recovery was calculated. 6. Investigation of In Vitro Metabolic Stability in Rat Hepatocytes
Hepatocytes from Han Wistar rats were isolated via a 2-step perfusion method. After perfusion, the liver was carefully removed from the rat: the liver capsule was opened and the hepatocytes were gently shaken out into a Petri dish with ice-cold Williams medium E (purchased from Sigma Aldrich Life Science, St Louis, Mo.). The resulting cell suspension was filtered through sterile gaze in 50 ml falcon tubes and centrifuged at 50×g for 3 min at room temperature. The cell pellet was resuspended in 30 ml WME and centrifuged through a Percoll® gradient for 2 times at 100×g. […] Cell viability was determined by trypan blue exclusion. […] Samples were frozen at −20° C. over night, after subsequently centrifuged for 15 minutes at 3000 rpm and the supernatant was analyzed with an Agilent 1200 HPLC-system with LCMS/MS detection.
The half-life of a test compound was determined from the concentration-time plot. From the half-life the intrinsic clearances were calculated.

[2] = Thermodynamic solubility in water from powder (Method 4b); type: physicochemical; conditions: phosphate buffer, aqueous buffer, thermodynamic from solid; pH 6.5, Method 4b
Protocol: 4b) Thermodynamic Solubility in Water from Powder
The thermodynamic solubility of compounds in water was determined by an equilibrium shake flask method (see for example: E. H. Kerns, L. Di: Drug-like Properties: Concepts, Structure Design and Methods, 276-286, Burlington, Mass., Academic Press, 2008). A saturated solution of the drug was prepared and the solution was mixed for 24 h to ensure that equilibrium was reached. The solution was centrifuged to remove the insoluble fraction and the concentration of the compound in solution was determined using a standard calibration curve. To prepare the sample, 2 mg solid compound was weighed in a 4 mL glass vial. 1 mL phosphate buffer pH 6.5 was added. The suspension was stirred for 24 hrs at room temperature. The solution was centrifuged afterwards. To prepare the sample for the standard calibration, 2 mg solid sample was dissolved in 30 mL acetonitrile. After sonification the solution was diluted with water to 50 mL. Sample and standards were quantified by HPLC with UV-detection. For each sample two injection volumes (5 and 50 μl) in triplicates were made. Three injection volumes (5 μl, 10 μl and 20 μl) were made for the standard. […]
The areas of sample- and standard injections as well as the calculation of the solubility value (in mg/l) were determined by using HPLC software (Waters Empower 2 FR).

Compound	half-life [1]	maximal calculated oral bioavailability (Fmax) based on stability data in rat hepatocytes (rat hepatocytes)	solubility thermodynamic at 24 h [2]
CS(=N)(=N)Cc1cc2nc(c1)OCCCOc1cc(F)ccc1-c1cc(ncc1F)N2 [Example 1, 15,19-difluoro-8-[(S-methylsulfonodiimidoyl)methyl]-3,4-dihydro-2H,11H-10,6-(azeno)-12,16-(metheno)-1,5,11,13-benzodioxadiazacyclooctadecine]	3.4 h	76%	–
CN=S(C)(=N)Cc1cc2cc(c1)OCCCCOc1cc(F)ccc1-c1nc(ncc1F)N2 (racemic) [Example 10, (rac)-9-[(N,S-dimethylsulfonodiimidoyl)methyl]-16,20-difluoro-2,3,4,5-tetrahydro-12H-13,17-(azeno)-11,7-(metheno)-1,6,12,14-benzodioxadiazacyclononadecine]	–	46%	–
CS(=N)(Cc1cc2nc(c1)OCCCOc1cc(F)ccc1-c1cc(ncc1F)N2)=NCCCO (racemic) [Example 2, (rac)-3-(2-{[15,19-difluoro-3,4-dihydro-2H,11H-10,6-(azeno)-12,16-(metheno)-1,5,11,13-benzodioxadiazacyclooctadecin-8-yl]methyl}-2-methyl-2λ^6-diazathia-1,2-dien-1-yl)propan-1-ol]	–	58%	–
CS(=N)(=N)Cc1cc2cc(c1)OCCCCOc1cc(F)ccc1-c1nc(ncc1F)N2 [Example 5, 16,20-difluoro-9-[(S-methylsulfonodiimidoyl)methyl]-2,3,4,5-tetrahydro-12H-13,17-(azeno)-11,7-(metheno)-1,6,12,14-benzodioxadiazacyclononadecine]	6.9 h	93%	58 µg/mL (≈ 126 µM)
